Results as given in EP0004261A2, “Imidazole derivatives, method for their preparation and pharmaceutical compositions containing them” (F. HOFFMANN-LA ROCHE & CO. Aktiengesellschaft, priority 1978, dated 1979).

System: Bastardhunde
Assay: Coronary-dilating / haemodynamic effect in anaesthetised open-chest dogs (electromagnetic flowmeter, aortic catheter, tachograph)
Settings: Dosis i.v. 1 mg/kg in Propylenglykol, n = 3
[1] = maximal effect in percent of baseline

2-Aethyl-N^5(oder N^4)-nitro-1-(2,3,5-tri-O-nitro-ß-D-ribofuranosyl)imidazol-4,5-dicarboxamid [mit R1 = CH3; R2 = H]
BP [min] (arterieller Blutdruck, Wirkungsdauer) (duration of effect): >60 min
CABF [min] (Coronarfluss, Wirkungsdauer) (duration of effect): >60 min
HR [min] (Herzfrequenz, Wirkungsdauer) (duration of effect): >60 min
PL [min] (Druckgradient, Wirkungsdauer) (duration of effect): 60 min
BP Δ % (arterieller Blutdruck) [1]: -32%
CABF Δ % (Coronarfluss) [1]: -19%
HR Δ % (Herzfrequenz) [1]: -6%
PL Δ % (Druckgradient, Aortadruck minus peripherem Coronardruck) [1]: -24%
